Columns and labels:
[1] = ionic strengths 0.01 to 1, 25 and 37° C.; cited from earlier work
786-0 = assay: NCI 60 cell line panel, single dose; assay type: cell-based; conditions: Renal Cancer, 786-0, single dose
Excerpt: (§1) This complex performed at a similar level compared to individual tests for copper(II) sulfate as well as quinine sulfate (NSC).

A549/ATCC = assay: NCI 60 cell line panel, single dose; assay type: cell-based; conditions: Non-Small Cell Lung Cancer
Excerpt: as §1

ACHN = assay: NCI 60 cell line panel, single dose; assay type: cell-based; conditions: Renal Cancer
Excerpt: as §1

BT-549 = assay: NCI 60 cell line panel, single dose; assay type: cell-based; conditions: Breast Cancer, BT-549, single dose
Excerpt: as §1

CAKI-1 = assay: NCI 60 cell line panel, single dose; assay type: cell-based; conditions: Renal Cancer, CAKI-1, single dose
Excerpt: as §1

CCRF-CEM = assay: NCI 60 cell line panel, single dose; assay type: cell-based; conditions: Leukemia
Excerpt: as §1

COLO 205 = assay: NCI 60 cell line panel, single dose; assay type: cell-based; conditions: Colon Cancer, COLO 205, single dose
Excerpt: as §1

DU-145 = assay: NCI 60 cell line panel, single dose; assay type: cell-based; conditions: Prostate Cancer, DU-145, single dose
Excerpt: as §1

EKVX = assay: NCI 60 cell line panel, single dose; assay type: cell-based; conditions: Non-Small Cell Lung Cancer
Excerpt: as §1

HCC-2998 = assay: NCI 60 cell line panel, single dose; assay type: cell-based; conditions: Colon Cancer, HCC-2998, single dose
Excerpt: as §1

HCT-116 = assay: NCI 60 cell line panel, single dose; assay type: cell-based; conditions: Colon Cancer, HCT-116, single dose
Excerpt: as §1

HCT-15 = assay: NCI 60 cell line panel, single dose; assay type: cell-based; conditions: Colon Cancer, HCT-15, single dose
Excerpt: as §1

HL-60(TB) = assay: NCI 60 cell line panel, single dose; assay type: cell-based; conditions: Leukemia
Excerpt: as §1

HOP-62 = assay: NCI 60 cell line panel, single dose; assay type: cell-based; conditions: Non-Small Cell Lung Cancer, HOP-62, single dose
Excerpt: as §1

HOP-92 = assay: NCI 60 cell line panel, single dose; assay type: cell-based; conditions: Non-Small Cell Lung Cancer, HOP-92, single dose
Excerpt: as §1

HS 578T = assay: NCI 60 cell line panel, single dose; assay type: cell-based; conditions: Breast Cancer
Excerpt: as §1

HT29 = assay: NCI 60 cell line panel, single dose; assay type: cell-based; conditions: Colon Cancer
Excerpt: as §1

IGROV1 = assay: NCI 60 cell line panel, single dose; assay type: cell-based; conditions: Ovarian Cancer
Excerpt: as §1

KM12 = assay: NCI 60 cell line panel, single dose; assay type: cell-based; conditions: Colon Cancer
Excerpt: as §1

LOX IMVI = assay: NCI 60 cell line panel, single dose; assay type: cell-based; conditions: Melanoma
Excerpt: as §1

M14 = assay: NCI 60 cell line panel, single dose; assay type: cell-based; conditions: Melanoma
Excerpt: as §1

MALME-3M = assay: NCI 60 cell line panel, single dose; assay type: cell-based; conditions: Melanoma
Excerpt: as §1

MCF7 = assay: NCI 60 cell line panel, single dose; assay type: cell-based; conditions: Breast Cancer
Excerpt: as §1

MDA-MB-231/ATCC = assay: NCI 60 cell line panel, single dose; assay type: cell-based; conditions: Breast Cancer
Excerpt: as §1

MDA-MB-435 = assay: NCI 60 cell line panel, single dose; assay type: cell-based; conditions: Melanoma, MDA-MB-435, single dose
Excerpt: as §1

MDA-MB-468 = assay: NCI 60 cell line panel, single dose; assay type: cell-based; conditions: Breast Cancer, MDA-MB-468, single dose
Excerpt: as §1

MOLT-4 = assay: NCI 60 cell line panel, single dose; assay type: cell-based; conditions: Leukemia, MOLT-4, single dose
Excerpt: as §1

NCI-H226 = assay: NCI 60 cell line panel, single dose; assay type: cell-based; conditions: Non-Small Cell Lung Cancer
Excerpt: as §1

NCI-H23 = assay: NCI 60 cell line panel, single dose; assay type: cell-based; conditions: Non-Small Cell Lung Cancer
Excerpt: as §1

NCI-H322M = assay: NCI 60 cell line panel, single dose; assay type: cell-based; conditions: Non-Small Cell Lung Cancer
Excerpt: as §1

NCI-H460 = assay: NCI 60 cell line panel, single dose; assay type: cell-based; conditions: Non-Small Cell Lung Cancer
Excerpt: as §1

NCI-H522 = assay: NCI 60 cell line panel, single dose; assay type: cell-based; conditions: Non-Small Cell Lung Cancer
Excerpt: as §1

NCI/ADR-RES = assay: NCI 60 cell line panel, single dose; assay type: cell-based; conditions: Ovarian Cancer
Excerpt: as §1

OVCAR-3 = assay: NCI 60 cell line panel, single dose; assay type: cell-based; conditions: Ovarian Cancer, OVCAR-3, single dose
Excerpt: as §1

OVCAR-4 = assay: NCI 60 cell line panel, single dose; assay type: cell-based; conditions: Ovarian Cancer, OVCAR-4, single dose
Excerpt: as §1

OVCAR-5 = assay: NCI 60 cell line panel, single dose; assay type: cell-based; conditions: Ovarian Cancer, OVCAR-5, single dose
Excerpt: as §1

OVCAR-8 = assay: NCI 60 cell line panel, single dose; assay type: cell-based; conditions: Ovarian Cancer, OVCAR-8, single dose
Excerpt: as §1

RPMI-8226 = assay: NCI 60 cell line panel, single dose; assay type: cell-based; conditions: Leukemia, RPMI-8226, single dose
Excerpt: as §1

RXF 393 = assay: NCI 60 cell line panel, single dose; assay type: cell-based; conditions: Renal Cancer, RXF 393, single dose
Excerpt: as §1

SK-MEL-28 = assay: NCI 60 cell line panel, single dose; assay type: cell-based; conditions: Melanoma, SK-MEL-28, single dose
Excerpt: as §1

SK-MEL-2 = assay: NCI 60 cell line panel, single dose; assay type: cell-based; conditions: Melanoma, SK-MEL-2, single dose
Excerpt: as §1

SK-OV-3 = assay: NCI 60 cell line panel, single dose; assay type: cell-based; conditions: Ovarian Cancer, SK-OV-3, single dose
Excerpt: as §1

SN12C = assay: NCI 60 cell line panel, single dose; assay type: cell-based; conditions: Renal Cancer
Excerpt: as §1

SR = assay: NCI 60 cell line panel, single dose; assay type: cell-based; conditions: Leukemia
Excerpt: as §1

SW-620 = assay: NCI 60 cell line panel, single dose; assay type: cell-based; conditions: Colon Cancer, SW-620, single dose
Excerpt: as §1

T-47D = assay: NCI 60 cell line panel, single dose; assay type: cell-based; conditions: Breast Cancer
Excerpt: as §1

TK-10 = assay: NCI 60 cell line panel, single dose; assay type: cell-based; conditions: Renal Cancer, TK-10, single dose
Excerpt: as §1

UACC-257 = assay: NCI 60 cell line panel, single dose; assay type: cell-based; conditions: Melanoma, UACC-257, single dose
Excerpt: as §1

UACC-62 = assay: NCI 60 cell line panel, single dose; assay type: cell-based; conditions: Melanoma, UACC-62, single dose
Excerpt: as §1

UO-31 = assay: NCI 60 cell line panel, single dose; assay type: cell-based; conditions: Renal Cancer, UO-31, single dose
Excerpt: as §1

SF-268 = assay: NCI 60 cell line panel, single dose; assay type: cell-based; conditions: CNS Cancer, SF-268, single dose
SF-295 = assay: NCI 60 cell line panel, single dose; assay type: cell-based; conditions: CNS Cancer, SF-295, single dose
SF-539 = assay: NCI 60 cell line panel, single dose; assay type: cell-based; conditions: CNS Cancer, SF-539, single dose
SNB-19 = assay: NCI 60 cell line panel, single dose; assay type: cell-based; conditions: CNS Cancer, SNB-19, single dose
SNB-75 = assay: NCI 60 cell line panel, single dose; assay type: cell-based; conditions: CNS Cancer, SNB-75, single dose
U251 = assay: NCI 60 cell line panel, single dose; assay type: cell-based; conditions: CNS Cancer

## C=C[C@H]1C[N@@]2CC[C@H]1C[C@H]2[C@H](O)c1ccnc2ccc(OC)cc12 [Quinine]
[1]
  pKa1: approximately 4.2
  pKa2: 8.5

## copper(II)-(quinine)2^+ [CuQ2]
786-0
  Growth Percent: 120.5%
A549/ATCC
  Growth Percent: 88.43%
ACHN
  Growth Percent: 100.6%
BT-549
  Growth Percent: 107.4%
CAKI-1
  Growth Percent: 109.9%
CCRF-CEM
  Growth Percent: 100.1%
COLO 205
  Growth Percent: 91.74%
DU-145
  Growth Percent: 113.3%
EKVX
  Growth Percent: 119.3%
HCC-2998
  Growth Percent: 108.9%
HCT-116
  Growth Percent: 96.95%
HCT-15
  Growth Percent: 98.35%
HL-60(TB)
  Growth Percent: 106.2%
HOP-62
  Growth Percent: 132.7%
HOP-92
  Growth Percent: 88.14%
HS 578T
  Growth Percent: 117.5%
HT29
  Growth Percent: 84.68%
IGROV1
  Growth Percent: 124.1%
KM12
  Growth Percent: 91.04%
LOX IMVI
  Growth Percent: 80.61%
M14
  Growth Percent: 101.1%
MALME-3M
  Growth Percent: 105.7%
MCF7
  Growth Percent: 84.97%
MDA-MB-231/ATCC
  Growth Percent: 82.36%
MDA-MB-435
  Growth Percent: 91.47%
MDA-MB-468
  Growth Percent: 117.8%
MOLT-4
  Growth Percent: 96.49%
NCI-H226
  Growth Percent: 103.6%
NCI-H23
  Growth Percent: 104.3%
NCI-H322M
  Growth Percent: 119.9%
NCI-H460
  Growth Percent: 105.8%
NCI-H522
  Growth Percent: 94.89%
NCI/ADR-RES
  Growth Percent: 105%
OVCAR-3
  Growth Percent: 120%
OVCAR-4
  Growth Percent: 110.4%
OVCAR-5
  Growth Percent: 116.2%
OVCAR-8
  Growth Percent: 103.8%
RPMI-8226
  Growth Percent: 105.8%
RXF 393
  Growth Percent: 139.9%
SK-MEL-28
  Growth Percent: 109.2%
SK-MEL-2
  Growth Percent: 95.24%
SK-OV-3
  Growth Percent: 95.07%
SN12C
  Growth Percent: 109.4%
SR
  Growth Percent: 80.32%
SW-620
  Growth Percent: 111%
T-47D
  Growth Percent: 100.1%
TK-10
  Growth Percent: 115%
UACC-257
  Growth Percent: 93.34%
UACC-62
  Growth Percent: 84.78%
UO-31
  Growth Percent: 92.23%
SF-268
  Growth Percent: 125.4%
SF-295
  Growth Percent: 85.7%
SF-539
  Growth Percent: 102.4%
SNB-19
  Growth Percent: 108.7%
SNB-75
  Growth Percent: 126.4%
U251
  Growth Percent: 83.16%

— patent US20130237511A1, “Copper Ion Delivery Platform for Pharmaceutical Agents” (University System of Georgia, priority 2012, published 2013)
